Data published in paper PMC7041945, “Misfolded proteins bind and activate death receptor 5 to trigger apoptosis during unresolved endoplasmic reticulum stress” (eLife, 2020).

What was measured:
[1] = system: caspase 8 in HCT116 lysates; assay: Caspase 8 activity (caspase glo 8) of cell lysates / IP inputs; type: cell-based, Homo sapiens; details: for norm RLUs: rep 2, normalized by lysate quant
Protocol: Cells harvested from a 6-well plate were resuspended in 100 μl of lysis buffer (30 mM HEPES pH 7.2, 150 mM NaCl, 1% Triton X-100) and lysed via needle shearing (25G, 10 passes) followed by a 30 min incubation on ice. Supernatant was collected after centrifuging at 1000xg for 5 min. For the caspase activity assay, 10 μl of supernatant diluted with lysis buffer (1:25, 1:50, 1:100 to stay within linear range of luminescence measurements) was incubated with 10 μl of the luminogenic caspase glo 8 substrate (Promega #PRG8200) in a 384-white walled plate (Corning 3574) for 45 min at RT before measuring luminescence on a Spectramax-M5 plate reader.

HCT116 cells = assay: Annexin V (and SytoxBlue) flow cytometry for apoptosis; type: cell-based, Homo sapiens
Protocol: Cells seeded in a 6-well plate were transfected with the specified plasmid for 24 hr and harvested via trypsinization in complete media to allow a 30 min recovery at 37°C. The samples were then centrifuged at 500xg for 5 min and resuspended In 150 μl of a 1:20 dilution of Annexin V-AlexaFluor 647 conjugate (Thermo Scientific #A23204). Samples were transferred to a 96-well U-bottom plate and incubated in the dark for 15 min at RT. The distribution of apoptotic cells was determined by flow cytometry on a BD LSR II.

GFP (340+341) = assay: qPCR of GFP transcript (expression of GFP-tagged construct); type: cell-based; details: Rep 2; for avg. fold induction GFP (340+341) / fold induction GFP (340+341): relative to empty traffo
GAPDH = assay: qPCR of GAPDH (reference transcript); type: cell-based; details: Rep 2; for avg. fold induction GAPDH / fold induction GAPDH: relative to empty traffo

INS-GFP: GFP-tagged proinsulin expressed from plasmid
fold change in caspase 8 activity relative to GFP ([1]; input lysates GFP vs INS vs RHO, Rep1): 2.597 fold | fold change in caspase 8 activity relative to GFP ([1]; input lysates GFP vs INS vs RHO, Rep2): 2.0013 fold | avg fold change in caspase 8 activity relative to GFP ([1]; input lysates GFP vs INS vs RHO, average of Rep1 and Rep2): 2.299 fold | Mean ± SEM (lysate inputs) ([1]; lysate inputs, relative to GFP, n=2): 2.299 ± 0.2977, n=2 | norm RLUs ([1]; dilution 0.025): 1827.1 RLUs | norm RLUs ([1]; dilution 0.05): 3654.19 RLUs | norm RLUs ([1]; dilution 0.1): 8264.86 RLUs | 95% confidence interval of difference (lysate inputs) ([1]; vs. GFP): 0.01818 to 2.580 | Difference between means (lysate inputs) ([1]; vs. GFP): 1.299 ± 0.2977 | PARP cleavage and annexin V staining (HCT116 cells; HCT116, transfected 24 hr, Nt or DR5 siRNA): induced PARP cleavage and annexin V staining in a DR5-dependent manner | Mean ± SEM (siDR5), Annexin V (HCT116 cells; siDR5, N=3): 19 ± 1.7 N=3 | 95% confidence interval of difference, Annexin V (HCT116 cells; siDR5 vs. siNt): -25 to -8.3 | Difference between means, Annexin V (HCT116 cells; siDR5 vs. siNt): -17 ± 2.9 | Mean ± SEM (siNt), Annexin V (HCT116 cells; siNt, N=3): 35 ± 2.4 N=3 | avg. fold induction GFP (340+341) (GFP (340+341); 3 hr, mean of 3 replicates): 6059.51 | fold induction GFP (340+341) (GFP (340+341); 3 hr, replicate 1): 5553.44 | fold induction GFP (340+341) (GFP (340+341); 3 hr, replicate 2): 6428.23 | fold induction GFP (340+341) (GFP (340+341); 3 hr, replicate 3): 6196.87 | 2^-(deltaCq) GFP (340+341) (GFP (340+341); 3 hr, replicate 1): 0.9383 | Cq GFP (340+341) (GFP (340+341); 3 hr, replicate 1): 19.2537 | Cq(sample) - avg Cq(GAPDH), GFP (340+341) (GFP (340+341); 3 hr, replicate 1): 0.0918 | 2^-(deltaCq) GFP (340+341) (GFP (340+341); 3 hr, replicate 2): 1.086 | Cq GFP (340+341) (GFP (340+341); 3 hr, replicate 2): 19.0426 | Cq(sample) - avg Cq(GAPDH), GFP (340+341) (GFP (340+341); 3 hr, replicate 2): -0.1192 | 2^-(deltaCq) GFP (340+341) (GFP (340+341); 3 hr, replicate 3): 1.047 | Cq GFP (340+341) (GFP (340+341); 3 hr, replicate 3): 19.0955 | Cq(sample) - avg Cq(GAPDH), GFP (340+341) (GFP (340+341); 3 hr, replicate 3): -0.06635 | avg. fold induction GFP (340+341) (GFP (340+341); 7 hr, mean of 3 replicates): 36312.6 | fold induction GFP (340+341) (GFP (340+341); 7 hr, replicate 1): 36506.4 | fold induction GFP (340+341) (GFP (340+341); 7 hr, replicate 2): 31765.4 | fold induction GFP (340+341) (GFP (340+341); 7 hr, replicate 3): 40666.1 | 2^-(deltaCq) GFP (340+341) (GFP (340+341); 7 hr, replicate 1): 6.168 | Cq GFP (340+341) (GFP (340+341); 7 hr, replicate 1): 16.6754 | Cq(sample) - avg Cq(GAPDH), GFP (340+341) (GFP (340+341); 7 hr, replicate 1): -2.625 | 2^-(deltaCq) GFP (340+341) (GFP (340+341); 7 hr, replicate 2): 5.3673 | Cq GFP (340+341) (GFP (340+341); 7 hr, replicate 2): 16.8761 | Cq(sample) - avg Cq(GAPDH), GFP (340+341) (GFP (340+341); 7 hr, replicate 2): -2.4242 | 2^-(deltaCq) GFP (340+341) (GFP (340+341); 7 hr, replicate 3): 6.871 | Cq GFP (340+341) (GFP (340+341); 7 hr, replicate 3): 16.5198 | Cq(sample) - avg Cq(GAPDH), GFP (340+341) (GFP (340+341); 7 hr, replicate 3): -2.781 | avg. 2^-(deltaCq) GFP (340+341) (GFP (340+341); 24 hr, mean of 3 replicates): 90.4075 | 2^-(deltaCq) GFP (340+341) (GFP (340+341); 24 hr, replicate 1): 82.5431 | Cq GFP (340+341) (GFP (340+341); 24 hr, replicate 1): 13.3376 | Cq(sample) - avg Cq(GAPDH), GFP (340+341) (GFP (340+341); 24 hr, replicate 1): -6.367 | 2^-(deltaCq) GFP (340+341) (GFP (340+341); 24 hr, replicate 2): 92.9155 | Cq GFP (340+341) (GFP (340+341); 24 hr, replicate 2): 13.1668 | Cq(sample) - avg Cq(GAPDH), GFP (340+341) (GFP (340+341); 24 hr, replicate 2): -6.538 | 2^-(deltaCq) GFP (340+341) (GFP (340+341); 24 hr, replicate 3): 95.7639 | Cq GFP (340+341) (GFP (340+341); 24 hr, replicate 3): 13.1232 | Cq(sample) - avg Cq(GAPDH), GFP (340+341) (GFP (340+341); 24 hr, replicate 3): -6.581 | Cq GAPDH (GAPDH; 3 hr, mean of 3 replicates): 19.1619 | avg. fold induction GAPDH (GAPDH; 3 hr, mean of 3 replicates): 1 | fold induction GAPDH (GAPDH; 3 hr, replicate 1): 0.8888 | fold induction GAPDH (GAPDH; 3 hr, replicate 2): 1.06 | fold induction GAPDH (GAPDH; 3 hr, replicate 3): 1.051 | 2^-(deltaCq) GAPDH (GAPDH; 3 hr, replicate 1): 0.8916 | Cq GAPDH (GAPDH; 3 hr, replicate 1): 19.3274 | Cq(sample) - avg Cq(GAPDH), GAPDH (GAPDH; 3 hr, replicate 1): 0.1655 | 2^-(deltaCq) GAPDH (GAPDH; 3 hr, replicate 2): 1.064 | Cq GAPDH (GAPDH; 3 hr, replicate 2): 19.0729 | Cq(sample) - avg Cq(GAPDH), GAPDH (GAPDH; 3 hr, replicate 2): -0.08892 | 2^-(deltaCq) GAPDH (GAPDH; 3 hr, replicate 3): 1.055 | Cq GAPDH (GAPDH; 3 hr, replicate 3): 19.0852 | Cq(sample) - avg Cq(GAPDH), GAPDH (GAPDH; 3 hr, replicate 3): -0.07662 | Cq GAPDH (GAPDH; 7 hr, mean of 3 replicates): 19.3003 | avg. fold induction GAPDH (GAPDH; 7 hr, mean of 3 replicates): 1.004 | fold induction GAPDH (GAPDH; 7 hr, replicate 1): 0.8393 | fold induction GAPDH (GAPDH; 7 hr, replicate 2): 1.091 | fold induction GAPDH (GAPDH; 7 hr, replicate 3): 1.082 | 2^-(deltaCq) GAPDH (GAPDH; 7 hr, replicate 1): 0.842 | Cq GAPDH (GAPDH; 7 hr, replicate 1): 19.5485 | Cq(sample) - avg Cq(GAPDH), GAPDH (GAPDH; 7 hr, replicate 1): 0.2482 | 2^-(deltaCq) GAPDH (GAPDH; 7 hr, replicate 2): 1.094 | Cq GAPDH (GAPDH; 7 hr, replicate 2): 19.1708 | Cq(sample) - avg Cq(GAPDH), GAPDH (GAPDH; 7 hr, replicate 2): -0.1295 | 2^-(deltaCq) GAPDH (GAPDH; 7 hr, replicate 3): 1.086 | Cq GAPDH (GAPDH; 7 hr, replicate 3): 19.1817 | Cq(sample) - avg Cq(GAPDH), GAPDH (GAPDH; 7 hr, replicate 3): -0.1186 | Cq GAPDH (GAPDH; 24 hr, mean of 3 replicates): 19.7046 | avg. fold induction GAPDH (GAPDH; 24 hr, mean of 3 replicates): 1.006 | fold induction GAPDH (GAPDH; 24 hr, replicate 1): 0.8281 | fold induction GAPDH (GAPDH; 24 hr, replicate 2): 1.042 | fold induction GAPDH (GAPDH; 24 hr, replicate 3): 1.149 | 2^-(deltaCq) GAPDH (GAPDH; 24 hr, replicate 1): 0.8307 | Cq GAPDH (GAPDH; 24 hr, replicate 1): 19.9722 | Cq(sample) - avg Cq(GAPDH), GAPDH (GAPDH; 24 hr, replicate 1): 0.2676 | 2^-(deltaCq) GAPDH (GAPDH; 24 hr, replicate 2): 1.045 | Cq GAPDH (GAPDH; 24 hr, replicate 2): 19.6413 | Cq(sample) - avg Cq(GAPDH), GAPDH (GAPDH; 24 hr, replicate 2): -0.06334 | 2^-(deltaCq) GAPDH (GAPDH; 24 hr, replicate 3): 1.1521 | Cq GAPDH (GAPDH; 24 hr, replicate 3): 19.5004 | Cq(sample) - avg Cq(GAPDH), GAPDH (GAPDH; 24 hr, replicate 3): -0.2043
